This is an account of results in patent US7053069B2, “Pharmaceutical compositions and methods of using C-21 modified epothilone derivatives” (Bristol-Myers Squibb Company, priority 2002, dated 2006).

Data set [1] is described as follows: Clinical toxicity in dose escalation study. Format: in vivo. Conditions: human patients. How it is done: (§1) Compound A was administered to human patients once every three (3) weeks as a 15-minute infusion, using an accelerated followed by modified Fibonacci dose escalation design. Twenty-two (22) patients were treated at does levels of 0.6, 1.2, 2.5, 5, 10, 20, 30 and 40 mg/m^2.

Data set [2] is described as follows: Aqueous solubility / formulation without surfactants. Format: physicochemical. How it is done:
The epothilones of formula Ic may be formulated without the use of surfactants to a concentration of about at least 20 mg/mL with pH adjustment. If formulations containing a surfactant are desired, the lyophilized epothilone analogs represented by formula I, Ia, Ib and Ic are reconstituted with a mixture of equal parts by volume of Dehydrated Alcohol, USP and a nonionic surfactant, preferably a polyoxyethylated castor oil surfactant (available from GAF Corporation, Mount Olive, N.J., under the trademark, Cremophor EL). Alternately, an oral suspension can be prepared by pH adjustment and the use of a stabilizer, surfactant, and/or viscosity enhancing agent, and may be administered alone or with water or with a pharmaceutically acceptable acid neutralizing buffer.

The nature of data set [3]: Clinical pharmacokinetics, 15-minute infusion once every three weeks. Format: in vivo, human. How it is done:
as §1

The nature of data set [4]: Degradation of drug during solution preparation and lyophilization. The data set is classed as physicochemical. Conditions: dissolution at about 5° C., pH 6.0, lyophilization at −15° C. 34 hours, drying at 25° C. 24 hours. How it is done:
[1S-[1R*,3R*(E),7R*,10S*,11R*,12R*,16S*]]-3-[2-[2-(Aminomethyl)-4-thiazolyl]-1-methylethenyl]-7,11-dihydroxy-8,8,10,12,16-pentamethyl-4,17-dioxabicyclo[14.1.0]heptadecane-5,9-dione (compound of formula Ic) (8.7 g) was dissolved in 1280 mL of an aqueous solution of citric acid (10.1 grams) and dextran 40 (80 grams) which had been pre-cooled to about 5° C. Once the drug powder had become completely dissolved, the solution pH was adjusted to 6.0 and Water for Injection (178 mL) was added.
The solution formed above was promptly lyophilized in a Virtis Genesis(TM) lyophilizer at −15° C. with exclusion of light over a period of 34 hours. The resultant lyophile was then further dried at 25° C. under high vacuum for 24 hours. […] The lyophile was packaged under clean conditions into 15 mL vials, each containing 10 mg of drug plus a 10% excess to allow for transfer and dispensing (vial/needle/syringe, VNS) losses.

Data set [5] relates to taxane-sensitive and taxane-resistant tumor models. The data set can be described thus: Anticancer activity in tumor models.
A short description of data set [6]: Stability of aqueous solution, time for 5% drug loss (t95). Conditions: 37° C. The data set is classed as physicochemical. From the text:
Administering one or more epothilones of formula I, Ia, Ib or Ic, or a pharmaceutically acceptable salt, solvate, clathrate, hydrate, or prodrug thereof, in combination with a pharmaceutically acceptable acid neutralizing buffer provides increased bioavailability of the one or more epothilones of formula I, Ia, Ib or Ic. Without being limited by theory, it is believed that the increased bioavailability is due, at least in significant part, to the buffer decreasing the rate of decomposition of the epothilones of formula I, Ia, Ib or Ic, or a pharmaceutically acceptable salt, solvate, clathrate, hydrate, or prodrug thereof, in the acidic environment of the stomach. Certain epothilones, including the epothilone of formula Ic, are unstable in acidic aqueous environments and decompose, presumably by an acid catalyzed hydrolytic opening of the epoxide ring. For example, the time for 5% drug loss (t95) at 37° C. for an aqueous solution of Compound A (epothilone of formula Ic) is approximately 14 h at pH 7, but <0.2 hours at pH 2.5. Thus, when epothilones of formula I, Ia, Ib or Ic, or a pharmaceutically acceptable salt, solvate, clathrate, hydrate, or prodrug thereof, are orally administered they decompose in the stomach of the patient such that they are either minimally absorbed or not absorbed by the gastrointestinal tract.

[7] abbreviates: human, 30 mg/m^2, cycle 1, mean, n=7.
Where [8] appears, read: plasma, intravenous, 30 mg/m2, human, 30 mg/m^2, cycle 1, mean, n=7.

On to `C/C(=C\c1csc(CN)n1)[C@@H]1C[C@@H]2O[C@]2(C)CCC[C@H](C)[C@H](O)[C@@H](C)C(=O)C(C)(C)[C@@H](O)CC(=O)O1` [Compound A, [1S-[1R*,3R*(E),7R*,10S*,11R*,12R*,16S*]]-3-[2-[2-(aminomethyl)-4-thiazolyl]-1-methylethenyl]-7,11-dihydroxy-8,8,10,12,16-pentamethyl-4,17-dioxabicyclo[14.1.0]heptadecane-5,9-dione], for which, in data set [1], the related toxicities result is “diarrhea, nausea, vomitting, anorexia, fatigue, anemia, alopecia, neuropathy, myalgia and neutropenia”. In addition, the “dose-limiting toxicity (DLT)” value in data set [1] (0.6 to 40 mg/m^2) is given as “No dose-limiting toxicity (DLT) was observed”. The aqueous solubility entry in data set [2] is on record as “water soluble”. Moreover, in data set [2] (with pH adjustment), the “concentration formulated without surfactants” value was “at least 20 mg/mL”. Further, the “time plasma concentrations near or above the preclinically determined effective concentration (MEC)” value in data set [3] (four of the seven patients in the 30 mg/m2 cohort) is on record as “about 8 hours”. For the same compound, in data set [3] (human patients, 0.6 to 40 mg/m^2, preliminary pharmacokinetics), the “increases in AUC and CMAX” value is listed as “dose-related”. In data set [3] (setting [7]), this compound returned a C1t of 282 mL/min/m^2 and a Vss of 494 L/m^2. Moreover, in data set [3] (setting [8]), the exposure (AUC) was determined as 2100 ng·h/mL, the concentration peaked (Cmax) at 3430 ng/mL and the half-life was 33 h. The “degradation of the drug” value in data set [4] is “No detectable degradation”. Further, the anticancer activity result in data set [5] is “demonstrated anticancer activity”. Also, the “time for 5% drug loss (t95)” value in data set [6] (pH 2.5) is < 0.2 h. Moreover, the “time for 5% drug loss (t95)” value in data set [6] (pH 7) is “approximately 14 h”.

Broadly, the AUC is the area under the concentration-time curve, a measure of exposure. A lower AUC goes with less exposure. By Cmax is commonly meant the highest concentration seen after dosing. For orientation: half-life means the time needed for the level to fall by half in the phase considered. Lower therefore signals rapid decline.
